Results reported in patent publication US6586425B2, “Cytoskeletal active agents for glaucoma therapy” (Wisconsin Alumni Research Foundation, priority 1996, dated 2003).
“And” between values parts separate entries of the source, which are not always exact repeats. Equal values may be shown once. Read-outs that look alike come from different tables or passages of the source.

Key:
living monkey eye [1] = type: in vivo, cynomolgus monkeys (Macaca fascicularis); conditions: for (LAT-B/BL)/(Veh/BL) / Facility LAT-B/Vehicle / Facility, LAT-B eye: 2 hr wait
cornea = test: Corneal thickness by ultrasonic pachymetry; type: in vivo, cynomolgus monkeys (Macaca fascicularis)
Method: Corneal thickness was measured using a DGH-1000 ultrasonic pachymeter (DGH Technology). All eyes were examined by biomicroscopy prior to baseline measurements. Monkeys were placed supine in head holders. The central cornea was measured once and the peripheral cornea was measured four times midway between the center and the limbus on the vertical and horizontal axes. For each point in each eye, two baseline thickness measurements were averaged, and 4.0 μg LAT-B or 25% DMSO was administered to opposite eyes in the LAT-B protocol, or 25% DMSO or Bárány's administered to opposite eyes in the DMSO control protocol. The eyelids were held open manually during and for 5 min. after drug or vehicle administration. Corneal thickness was measured every 30-min. for 6 hr and again at 24 hr.

living monkey eye [2] = conditions: living monkeys; cited from earlier work
living monkey eyes [3] = test: Aqueous humor flow and corneal endothelial transfer coefficient ka by fluorophotometry; conditions: for AHF Rx, LAT-B/Vehicle / AHF Rx/BL, LAT-B eye / AHF Rx/BL, LAT-B/Vehicle / ka Rx, LAT-B eye / ka Rx, LAT-B/Vehicle / ka Rx/BL, LAT-B eye / ka Rx/BL, LAT-B/Vehicle: 4.0 μg LAT-B topical
living monkey eyes [4] = test: Aqueous humor protein concentration (Lowry method); type: in vivo, cynomolgus monkeys (Macaca fascicularis); conditions: 4 μg LAT-B topical, insignificant
From the text: Approximately 5.5 hr after LAT-A and vehicle (25% DMSO) administration, or approximately 6.5 hr after LAT-B and vehicle (25% DMSO) administration, when AHF measurements had been completed, a sample of AH was obtained under a Zeiss surgical microscope, using a 30-gauge needle connected via polyethylene tubing to a tuberculin syringe. The needle was threaded through the corneal stroma for 6 mm, then directed into the AC so that the wound was self-sealing. AH entered the tubing by very gentle suction with the tuberculin syringe; only occasionally was brief mild pressure on the cornea with a needle holder required to promote the initial flow of AH into the tubing via the very thin needle. Approximately 60-80 μl of AH was removed, leaving a shallow but not completely flattened AC. In separate protocols with different monkeys, AH was similarly obtained 2 hr after 42 μg LAT-A or 1 hr after 4 μg LAT-B to one eye and vehicle to the opposite eye. The AH samples were stored at −20° C. for up to 24 hr. The protein concentration in each sample was assayed by the Lowry method, as known in the art (See e.g., Lowry et al., J. Biol. Chem., 193:265-275[1951]; and Peterson et al., Anal. Biochem., 100:201-220[1979]), in duplicate, and the result averaged. Duplicate sets of protein standards containing 0, 1, 3, 5, 10, 20, 40, or 60 μg bovine serum albumin (BSA) were assayed by the same method and results averaged and graphed to give a linear equation that was used to estimate the protein content in the AH samples. The optical density of each sample was measured at 660 nm using a Spectronic 20 Spectrophotometer (Bausch and Lomb).

[5] = LAT-B 0.8 μg topical, 0-30 min, n=5
[6] = LAT-B 0.8 μg topical, 30-60 min, n=5
[7] = LAT-B 0.8 μg topical, 60-90 min, n=5
[8] = LAT-B 4.0 μg topical, 0-30 min, n=5
[9] = LAT-B 4.0 μg topical, 30-60 min, n=5
[10] = LAT-B 4.0 μg topical, 60-90 min, n=5

## C/C1=C/C(=O)O[C@@H]2C[C@@H](CC[C@H](C)/C=C\CC1)O[C@@](O)([C@@H]1CSC(=O)N1)C2 [LAT-B]
Living monkey eye [1]; 2 hr after LAT-B 4.0 μg topical, n=5
  initial post-drug facility increase over final baseline value: 173±73%
Living monkey eye [1]; LAT-B 0.8 μg Top, n=5
  PRxf (final post-drug) facility, LAT-B eye: 1.54 ± 0.33 μl min^−1 mmHg^−1
  PRxf facility, LAT-B/Veh: 2.82 ± 1.22
  PRxf/BLf, LAT-B eye: 3.78 ± 0.70
  PRxf/BLf, LAT-B/Veh: 2.12 ± 0.64
  PRxf/PRxi, LAT-B eye: 3.41 ± 0.73
  PRxf/PRxi, LAT-B/Veh: 1.50 ± 0.28
  PRxi (first post-drug) facility, LAT-B eye: 0.47 ± 0.08 μl min^−1 mmHg^−1
  PRxi facility, LAT-B/Veh: 1.65 ± 0.38
  PRxi/BLf, LAT-B eye: 1.16 ± 0.11
  PRxi/BLf, LAT-B/Veh: 1.36 ± 0.16
Living monkey eye [1]; [5]
  (LAT-B/BL)/(Veh/BL): 1.84
  Facility LAT-B/Vehicle: 2.30
  Facility, LAT-B eye: 0.80 μl min^−1 mmHg^−1
Living monkey eye [1]; [6]
  (LAT-B/BL)/(Veh/BL): 2.59
  Facility LAT-B/Vehicle: 3.37
  Facility, LAT-B eye: 1.35 μl min^−1 mmHg^−1
Living monkey eye [1]; [7]
  (LAT-B/BL)/(Veh/BL): 2.37
  Facility LAT-B/Vehicle: 3.14
  Facility, LAT-B eye: 1.50 μl min^−1 mmHg^−1
Living monkey eye [1]; LAT-B 0.8 μg topical, n=5, p=NS
  facility increase, averaged over 90 min: 123±67%
Living monkey eye [1]; LAT-B 4.0 μg Top, n=5
  PRxf (final post-drug) facility, LAT-B eye: 2.03 ± 0.31 μl min^−1 mmHg^−1
  PRxf facility, LAT-B/Veh: 3.92 ± 0.58^∥
  PRxf/BLf, LAT-B eye: 6.19 ± 0.48
  PRxf/BLf, LAT-B/Veh: 3.69 ± 0.55^∥
  PRxf/PRxi, LAT-B eye: 3.16 ± 1.08
  PRxf/PRxi, LAT-B/Veh: 1.80 ± 0.53
  PRxi (first post-drug) facility, LAT-B eye: 0.98 ± 0.27 μl min^−1 mmHg^−1
  PRxi facility, LAT-B/Veh: 3.19 ± 1.16
  PRxi/BLf, LAT-B eye: 3.03 ± 0.94
  PRxi/BLf, LAT-B/Veh: 2.73 ± 0.73
Living monkey eye [1]; [8]
  (LAT-B/BL)/(Veh/BL): 3.68
  Facility LAT-B/Vehicle: 4.49
  Facility, LAT-B eye: 1.64 μl min^−1 mmHg^−1
Living monkey eye [1]; [9]
  (LAT-B/BL)/(Veh/BL): 4.03
  Facility LAT-B/Vehicle: 4.74
  Facility, LAT-B eye: 2.19 μl min^−1 mmHg^−1
Living monkey eye [1]; [10]
  (LAT-B/BL)/(Veh/BL): 3.68
  Facility LAT-B/Vehicle: 4.22
  Facility, LAT-B eye: 2.11 μl min^−1 mmHg^−1
Living monkey eye [1]; LAT-B 4.0 μg topical, n=5
  facility increase, averaged over 90 min: 272±45%
cornea; 4.0 μg LAT-B topical, 3.5 hr, n=8
  central corneal thickness increase vs contralateral control eyes (maximum): ~47 μm and 47±17 μm
cornea; 4.0 μg LAT-B topical, 24 hr
  central and peripheral corneal thickness: returned to baseline
cornea; LAT-B, hour 3.5 (maximal change)
  central cornea thicker compared to normal monkey cornea: ~10%
Living monkey eye [2]
  potency relative to LAT-A (outflow facility): 10 times
Living monkey eyes [3]; 4 μg LAT-B topical, first 3 hr
  effect on AHF: small, insignificant increase in AHF
  increase in ka: 58±20%
Living monkey eyes [3]; 4 μg LAT-B topical, overall 6 hr, n=6
  increase in ka: 39±5%
Living monkey eyes [3]; hour 0.5 to 3.0, n=6
  AHF Rx, LAT-B/Vehicle: 1.33
  AHF Rx/BL, LAT-B eye: 1.31
  AHF Rx/BL, LAT-B/Vehicle: 1.33
  ka Rx, LAT-B eye: 0.00735 min⁻¹
  ka Rx, LAT-B/Vehicle: 1.62
  ka Rx/BL, LAT-B eye: 1.44
  ka Rx/BL, LAT-B/Vehicle: 1.58
Living monkey eyes [3]; hour 0.5 to 6.0, n=6
  AHF Rx, LAT-B/Vehicle: 1.14
  AHF Rx/BL, LAT-B eye: 1.04
  AHF Rx/BL, LAT-B/Vehicle: 1.16
  ka Rx, LAT-B eye: 0.00648 min⁻¹
  ka Rx, LAT-B/Vehicle: 1.34
  ka Rx/BL, LAT-B eye: 1.33
  ka Rx/BL, LAT-B/Vehicle: 1.39
Living monkey eyes [3]; hour 3.5 to 6.0, n=6
  AHF Rx, LAT-B/Vehicle: 0.93
  AHF Rx/BL, LAT-B eye: 0.84
  AHF Rx/BL, LAT-B/Vehicle: 0.91
  ka Rx, LAT-B eye: 0.0063 min⁻¹
  ka Rx, LAT-B/Vehicle: 1.21
  ka Rx/BL, LAT-B eye: 1.31
  ka Rx/BL, LAT-B/Vehicle: 1.25
Living monkey eyes [4]; 1 hr, n=4
  [Protein]AC increase vs contralateral control eyes: 80±51%
Living monkey eyes [4]; 6.5 hr, n=6
  [Protein]AC increase vs contralateral control eyes: 11±24%
